The nature of series [1]: Gamma radiation (25-40 kGy) and 5-month storage stability of composition components in HDPE bottles. The note with it: for Concentration % Change, T = 0 vs. T = 5 Months / % Change (Unexposed vs. Exposed) / % LC, Exposed / % LC, Unexposed / % IPA, Exposed / % IPA, Unexposed: HDPE bottle. Format: physicochemical. How it is done:
An antimicrobial composition comprising isopropyl alcohol, citric acid, methyl paraben, propyl paraben, and methylene blue in HDPE bottles was exposed to 25-40 kGy radiation, and the amount of each component detected in the solution before and after radiation was tested. The testing was repeated after 5 months of storage. The results are presented in Tables 1 and 2, below, wherein “exposed” indicates the samples exposed to gamma radiation and “unexposed” indicates the samples that were not exposed to gamma radiation.

The test system of series [2] is tested microorganisms. The experiment in a line: Antimicrobial effect of components individually and together at various dilutions. Format: cell-based. As to conditions: against most tested microorganisms. On the procedure: The antimicrobial effect of various components of the composition of Example 1 were tested individually and together at various dilutions. The results are presented in FIG. 1A-1I, wherein shaded boxes indicate no significant response (<3 log10 reduction).

[3] abbreviates: T = 0, exposed to 25-40 kGy gamma radiation.
Setting [4] is: T = 0, not exposed to gamma radiation.
The mark [5] stands for this setting: T = 5 months, exposed to 25-40 kGy gamma radiation.
Setting [6] is: T = 5 months, not exposed to gamma radiation.

As for `O=C(O)CC(O)(CC(=O)O)C(=O)O` [Citric Acid, citric acid], the “change in amount of component upon gamma radiation” value in series [1] (25-40 kGy, HDPE bottles) was “negligible”. Further, the “Concentration % Change, T = 0 vs. T = 5 Months” value (“Concentration % Change” below) was −4.0% in series [1] (Exposed to gamma radiation) and −3.3% in series [1] (Unexposed). Moreover, the “% Change (Unexposed vs. Exposed)” value in series [1] (T = 0) is 1.1%; in series [1] (T = 5 months), 0.4%. The “% LC, Exposed” value in series [1] (setting [3]) is given as 97.4 % LC; in series [1] (setting [5]), 93.5 % LC. Further, the “% LC, Unexposed” value in series [1] (setting [4]) is 96.3 % LC; in series [1] (setting [6]) it was 93.1 % LC.
Take `CC(C)O` [IPA, isopropyl alcohol]: the “change in amount of component upon gamma radiation” value in series [1] (25-40 kGy, HDPE bottles) is recorded as “negligible”. For the same compound, the “Concentration % Change” value in series [1] (Exposed to gamma radiation) is 0.7%; in series [1] (Unexposed) it was 1.6%. Also, the “% Change (Unexposed vs. Exposed)” value in series [1] (T = 0) was 1.2%; in series [1] (T = 5 months), −0.1%. Moreover, the “% IPA, Exposed” value in series [1] (setting [3]) stood at 68.6%; in series [1] (setting [5]) it was 69.1%. Also, the “% IPA, Unexposed” value in series [1] (setting [4]) was determined as 68.1%; in series [1] (setting [6]), 69.2%. The “antimicrobial effect, alone” value in series [2] (25% v/v strength solution) was “little to no effect”.
For the compound `CN(C)c1ccc2nc3ccc(=[N+](C)C)cc-3sc2c1` [Methylene Blue, methylene blue], the “share of component in solution degraded by gamma radiation” value in series [1] (25-40 kGy, HDPE bottles, accompanied by a color change) is reported as “approximately 50%”. Moreover, the “% Change (Unexposed vs. Exposed)” value was −57.4% in series [1] (T = 0) and −49.4% in series [1] (T = 5 months). The “% LC, Exposed” value in series [1] (setting [3]) is on record as 44.9 % LC; in series [1] (setting [5]) it was 47.3 % LC. In addition, the entries for the “% LC, Unexposed” value in series [1] (setting [4]) and in series [1] (setting [6]) were 105.5 % LC and 93.4 % LC, respectively. In addition, the “antimicrobial effect, alone” value in series [2] (all tested concentrations) is on record as “little to no effect”.
For the compound `COC(=O)c1ccc(O)cc1` [Methylparaben, methyl-para-hydroxybenzoate], the “Concentration % Change” value in series [1] (Exposed to gamma radiation) is on record as 0.7%; in series [1] (Unexposed) it was 0.5%. The results for the “% Change (Unexposed vs. Exposed)” value in series [1] (T = 0) and in series [1] (T = 5 months) were −0.4% and −0.3%, respectively. The “% LC, Exposed” value in series [1] (setting [3]) was 74.5 % LC; in series [1] (setting [5]), 75.0 % LC. For the same compound, the “% LC, Unexposed” value in series [1] (setting [4]) turned out to be 74.8 % LC; in series [1] (setting [6]) it was 75.2 % LC.
As for `CCCOC(=O)c1ccc(O)cc1` [Propylparaben, propyl-para-hydroxybenzoate], the results for the “Concentration % Change” value in series [1] (Exposed to gamma radiation) and in series [1] (Unexposed) were 0.4% and 0.5%, respectively. In addition, the “% Change (Unexposed vs. Exposed)” value in series [1] (T = 0) was 0%; in series [1] (T = 5 months), −0.1%. Moreover, the “% LC, Exposed” value stood at 74.9 % LC in series [1] (setting [3]) and 75.2 % LC in series [1] (setting [5]). Moreover, the “% LC, Unexposed” value is given as 74.9 % LC in series [1] (setting [4]) and 75.3 % LC in series [1] (setting [6]).
In the case of `O=C(O)CC(O)(CC(=O)O)C(=O)O` [citrate], in series [2] (all tested concentrations), the “antimicrobial effect, alone” value was “little to no effect”.
